Where two headings read alike, the source gives them in different places.
Columns and labels:
[1] = Stability of complexes at 30-80° C.; type: physicochemical
Source text: For R-3-hydroxybutyric acid, potassium R-3-hydroxybutyrate, mixture of R-3-hydroxybutyric acid and potassium R-3-hydroxybutyrate, and R-3-hydroxybutyric acid·potassium R-3-hydroxybutyrate complex of Example 1, […]
For 3-hydroxybutyric acid, potassium 3-hydroxybutyrate, mixture of 3-hydroxybutyric acid and potassium 3-hydroxybutyrate, and 3-hydroxybutyric acid·potassium 3-hydroxybutyrate complex of Example 7, […]
For S-3-hydroxybutyric acid, potassium S-3-hydroxybutyrate, mixture of S-3-hydroxybutyric acid and potassium S-3-hydroxybutyrate, and S-3-hydroxybutyric acid·potassium S-3-hydroxybutyrate complex of Example 13, […]
For R-3-hydroxybutyric acid, calcium R-3-hydroxybutyrate, mixture of R-3-hydroxybutyric acid and calcium R-3-hydroxybutyrate, and R-3-hydroxybutyric acid·calcium R-3-hydroxybutyrate complex of Example 19, […]
For 3-hydroxybutyric acid, calcium 3-hydroxybutyrate, mixture of 3-hydroxybutyric acid and calcium 3-hydroxybutyrate, and 3-hydroxybutyric acid·calcium 3-hydroxybutyrate complex of Example 25, […]
For S-3-hydroxybutyric acid, calcium S-3-hydroxybutyrate, mixture of S-3-hydroxybutyric acid and calcium S-3-hydroxybutyrate, and S-3-hydroxybutyric acid·calcium S-3-hydroxybutyrate complex of Example 31, […]
For R-3-hydroxybutyric acid, magnesium R-3-hydroxybutyrate, mixture of R-3-hydroxybutyric acid and magnesium R-3-hydroxybutyrate, and R-3-hydroxybutyric acid·magnesium R-3-hydroxybutyrate complex of Example 37, […]
For 3-hydroxybutyric acid, magnesium 3-hydroxybutyrate, mixture of 3-hydroxybutyric acid and magnesium 3-hydroxybutyrate, and 3-hydroxybutyric acid·magnesium 3-hydroxybutyrate complex of Example 43, […]
For S-3-hydroxybutyric acid, magnesium S-3-hydroxybutyrate, mixture of S-3-hydroxybutyric acid and magnesium S-3-hydroxybutyrate, and S-3-hydroxybutyric acid·magnesium S-3-hydroxybutyrate complex of Example 49, […]
For R-3-hydroxypentanoic acid, sodium R-3-hydroxypentanoate, mixture of R-3-hydroxypentanoic acid and sodium R-3-hydroxypentanoate, and R-3-hydroxypentanoic acid·sodium R-3-hydroxypentanoate complex of Example 55, […]
For 3-hydroxypentanoic acid, sodium 3-hydroxypentanoate, mixture of 3-hydroxypentanoic acid and sodium 3-hydroxypentanoate, and 3-hydroxypentanoic acid·sodium 3-hydroxypentanoate complex of Example 61, […]
For S-3-hydroxypentanoic acid, sodium S-3-hydroxypentanoate, mixture of S-3-hydroxypentanoic acid and sodium S-3-hydroxypentanoate, and S-3-hydroxypentanoic acid·sodium S-3-hydroxypentanoate complex of Example 67, […]

[2] = Determination of moisture contents with KF moisture meter at different time points; type: physicochemical; conditions: temperature 23° C., humidity 92.5%
Source text: (§1) For R-3-hydroxybutyric acid, potassium R-3-hydroxybutyrate, mixture of R-3-hydroxybutyric acid and potassium R-3-hydroxybutyrate, and R-3-hydroxybutyric acid·potassium R-3-hydroxybutyrate complex of Example 1, under a certain condition, KF moisture meter was used to determine the moisture contents at different time points.
as §1, with “3-hydroxybutyric” for “R-3-hydroxybutyric”, “3-hydroxybutyrate,” for “R-3-hydroxybutyrate,”, “3-hydroxybutyrate” for “R-3-hydroxybutyrate”, “7,” for “1,”
as §1, with “S-3-hydroxybutyric” for “R-3-hydroxybutyric”, “S-3-hydroxybutyrate,” for “R-3-hydroxybutyrate,”, “S-3-hydroxybutyrate” for “R-3-hydroxybutyrate”, “13,” for “1,”
as §1, with “calcium” for “potassium”, “acid·calcium” for “acid·potassium”, “19,” for “1,”
(§2) For 3-hydroxybutyric acid, calcium 3-hydroxybutyrate, mixture of 3-hydroxybutyric acid and calcium 3-hydroxybutyrate, and 3-hydroxybutyric acid·calcium 3-hydroxybutyrate complex of Example 25, under a certain condition, KF moisture meter was used to determine the moisture contents at different time points.
as §2, with “S-3-hydroxybutyric” for “3-hydroxybutyric”, “S-3-hydroxybutyrate,” for “3-hydroxybutyrate,”, “S-3-hydroxybutyrate” for “3-hydroxybutyrate”, “31,” for “25,”
as §1, with “magnesium” for “potassium”, “acid·magnesium” for “acid·potassium”, “37,” for “1,”
as §2, with “magnesium” for “calcium”, “acid·magnesium 3-hydroxy butyrate” for “acid·calcium 3-hydroxybutyrate”, “43,” for “25,”
For S-3-hydroxybutyric acid, magnesium S-3-hydroxybutyrate, mixture of S-3-hydroxybutyric acid and magnesium S-3-hydroxybutyrate, and S-3-hydroxybutyric acid·magnesium S-3-hydroxybutyrate complex of Example 49, under a certain condition, KF moisture meter was used to determine the moisture contents at different time points.
(§3) For R-3-hydroxypentanoic acid, sodium R-3-hydroxypentanoate, mixture of R-3-hydroxypentanoic acid and sodium R-3-hydroxypentanoate, and R-3-hydroxypentanoic acid·sodium R-3-hydroxypentanoate complex of Example 55, under a certain condition, KF moisture meter was used to determine the moisture contents at different time points.
as §3, with “3-hydroxypentanoic” for “R-3-hydroxypentanoic”, “3-hydroxypentanoate,” for “R-3-hydroxypentanoate,”, “3-hydroxypentanoate” for “R-3-hydroxypentanoate”, “61,” for “55,”
as §3, with “S-3-hydroxypentanoic” for “R-3-hydroxypentanoic”, “S-3-hydroxypentanoate,” for “R-3-hydroxypentanoate,”, “S-3-hydroxypentanoate” for “R-3-hydroxypentanoate”, “67,” for “55,”

| Compound | Stability ([1]; 30° C.) | Stability ([1]; 40° C.) | Stability ([1]; 60° C.) | Stability ([1]; 70° C.) | Stability ([1]; 80° C.) | moisture content (%) ([2]; 30 min) | moisture content (%) ([2]; 1 h) | moisture content (%) ([2]; 2 h) | moisture content (%) ([2]; 4 h) | moisture content (%) ([2]; 6 h) | moisture content (%) ([2]; 7 h) | moisture content (%) ([2]; 11 h) | moisture content (%) ([2]; 22 h) | Stability [1] | Stability ([1]; 50° C.) |
| --- | --- | --- | --- | --- | --- | --- | --- | --- | --- | --- | --- | --- | --- | --- | --- |
| calcium 3-hydroxybutyrate | unchanged | unchanged | melted | melted | melted | 0.97 | 1.81 | 2.34 | 4.12 | 5.22 | 6.01 | 10.24 | 17.72 |  |  |
| CC[C@@H](O)CC(=O)[O-].[Na+] [Sodium R-3-hydroxypentanoate, sodium R-3-hydroxypentanoate] |  |  |  |  |  | 0.87 | 1.68 | 2.83 | 4.36 | 6.13 | 6.70 | 10.57 | 20.57 | unchanged |  |
| CC(O)CC(=O)O.CC(O)CC(=O)[O-].CC(O)CC(=O)[O-].[Mg+2] (stereo not drawn) [3-hydroxybutyric acid·magnesium 3-hydroxybutyrate] | unchanged | unchanged | Unchanged |  | melted | 0.56 | 0.97 | 1.82 | 3.26 | 4.62 | 5.57 | 8.75 | 14.68 |  | unchanged |
| CC(O)CC(=O)O.CC(O)CC(=O)[O-].CC(O)CC(=O)[O-].[Ca+2] (stereo not drawn) [3-hydroxybutyric acid·calcium 3-hydroxybutyrate] | unchanged | unchanged | unchanged |  | melted | 0.56 | 1.12 | 1.86 | 3.19 | 4.68 | 5.45 | 8.72 | 14.43 |  | unchanged |
| calcium R-3-hydroxybutyrate | unchanged | unchanged | melted | melted | melted | 0.92 | 1.82 | 2.43 | 4.22 | 5.35 | 6.04 | 10.44 | 17.68 |  |  |
| C[C@H](O)CC(=O)O.C[C@H](O)CC(=O)[O-].[K+] [S-3-hydroxybutyric acid·potassium S-3-hydroxybutyrate] | unchanged | unchanged | unchanged |  | melted | 0.72 | 1.34 | 196 | 3.72 | 5.99 | 6.82 | 9.83 | 18.28 |  | unchanged |
| C[C@@H](O)CC(=O)O.C[C@@H](O)CC(=O)[O-].C[C@@H](O)CC(=O)[O-].[Ca+2] [R-3-hydroxybutyric acid·calcium R-3-hydroxybutyrate] | unchanged | unchanged | unchanged |  | melted | 0.54 | 1.02 | 1.96 | 3.26 | 4.79 | 5.39 | 8.65 | 14.45 |  | unchanged |
| CC(O)CC(=O)O.CC(O)CC(=O)[O-].[K+] (stereo not drawn) [3-hydroxybutyric acid·potassium 3-hydroxybutyrate] | unchanged | unchanged | unchanged |  | melted | 0.68 | 1.28 | 1.93 | 3.68 | 5.92 | 6.84 | 9.67 | 19.25 |  | Unchanged |
| CCC(O)CC(=O)[O-].[Na+] (stereo not drawn) [Sodium 3-hydroxypentanoate, sodium 3-hydroxypentanoate] |  |  |  |  |  | 0.96 | 1.83 | 3.02 | 4.46 | 6.28 | 6.96 | 10.72 | 20.79 | unchanged |  |
| C[C@@H](O)CC(=O)O.C[C@@H](O)CC(=O)[O-].[K+] [R-3-hydroxybutyric acid·potassium R-3-hydroxybutyrate] | unchanged | unchanged | unchanged |  | melted | 0.64 | 1.24 | 1.89 | 3.66 | 5.89 | 6.78 | 9.77 | 19.45 |  | unchanged |
| C[C@@H](O)CC(=O)O.C[C@@H](O)CC(=O)[O-].C[C@@H](O)CC(=O)[O-].[Mg+2] [R-3-hydroxybutyric acid·magnesium R-3-hydroxybutyrate] | unchanged | unchanged | unchanged |  | melted | 0.57 | 0.92 | 1.76 | 3.16 | 4.59 | 5.69 | 8.65 | 14.45 |  | unchanged |

— US20260184662A1, “COMPOSITE OF ACID AND SALT, AND PREPARATION METHOD THEREFOR” (NANJING NUTRABUILDING BIO-TECH CO., LTD., priority 2022, published 2026)
